Key:
[1] = Particle size of EPO mRNA-encapsulating lipid nanoparticles; assay type: physicochemical; conditions: LNP with neutral lipid DSPC; mixed solution PBS; Lipid/Nucleic acid (wt/wt) 20
EPO mRNA = assay: mRNA encapsulation rate of mRNA lipid nanoparticles; assay type: physicochemical; conditions: LNP with neutral lipid DSPC; mixed solution PBS; Lipid/Nucleic acid (wt/wt) 20
In short: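 Lipid nanoparticles made by microfluidic mixing of ionizable lipid:neutral lipid (DSPC or DOPE):cholesterol:DMG-PEG2000 (50:10:38.5:1.5 mol %) with mRNA in pH 4.0 citrate, then dialysed against Tris pH 7.4 with 8% sucrose. Total mRNA was measured by A260−A330 after methanol disruption, outer-phase mRNA by RiboGreen standard addition; encapsulation rate derived from both.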

ICR mice = assay: EPO protein expression in mice after intravenous EPO mRNA lipid nanoparticles; assay type: in vivo; conditions: mRNA 0.1 mg/kg, plasma 6 hours after administration, neutral lipid DSPC, Lipid/Nucleic acid (wt/wt) 20, Comparative Example 1 is 1
In short: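 ICR mice given EPO mRNA lipid nanoparticles (ionized lipid:DSPC or DOPE:cholesterol:DMG-PEG2000 50:10:38.5:1.5 mol %) i.v. at 0.1 mg/kg mRNA. Plasma human EPO measured by ELISA 6 h post-dose, expressed relative to a comparator formulation set to 1.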

## CCCCCCCCN(CCCCC(=O)OCC(CCCCC)CCCCC)C(=O)OCCN(CCCN(CC)CC)CCOC(=O)N(CCCCCCCC)CCCCC(=O)OCC(CCCCC)CCCCC [Example 35, Bis(2-pentylheptyl) 11-(3-(diethylamino)propyl)-6,16-dioctyl-7,15-dioxo-8,14-dioxa-6,11,16-triazahenicosanedioate]
[1]
  Particle size (nm): 165 nm
EPO mRNA
  Nucleic acid encapsulation rate (%): 93%
ICR mice
  Relative amount of EPO protein (to Comparative Example 1): 6.49
